biological target: T1, Human PDE7B (hPDE7B) (Homo sapiens, UniProt Q9NP56); experiment: Measurement of PDE7 inhibitory activity (Experimental Example 1; residual cAMP, LANCE Ultra cAMP TR-FRET); format: biochemical; details: cAMP 3 nmol/L, room temperature 60 minutes
T1 construct: made in house; host or cells: COS-7 cells
Procedure: Human PDE7B (hPDE7B) was isolated from COS-7 cells transfected with plasmids encoding hPDE7B according to the method described in a reference, Biochemical and Biophysical Research Communication, 271, p. 575-583 (2000). The resulting enzyme solution was used in the PDE assay.
PDE7 inhibitory assay was carried out by reacting the mixture of a compound, hPDE7B, and cAMP, and measuring the residual cAMP by a detection method using LANCE (registered trademark) Ultra cAMP Detection Kit (ParkinElmer). The compound was dissolved in DMSO, and diluted so that the concentration would become 50 times of the final concentration. The hPDE7B and cAMP were diluted with an assay buffer (50 mmol/L Tris-HCl, 1 mmol/L MgCl2, 0.1% BSA, 0.5 mmol/L DTT, pH7.5) so that the hPDE7B would have an appropriate enzyme activity and the concentration of cAMP would become 6 nmol/L. To a 96 well plate were added the compound (2 μL) (DMSO final concentration: 2%), hPDE7B (48 μL), and cAMP (50 μL) (concentration at the reaction: 3 nmol/L), and the resulting mixture was reacted at room temperature for 60 minutes. The reaction solution (20 μL) was subjected to a TR-FRET method according to the protocol specified by the kit to measure the concentration of the residual cAMP. In the assay, to a tracer solution specified by the kit was added 0.5 mmol/L of 3-isobutyl-1-methylxanthine (IBMX, nonselective PDE inhibitor) in order to stop the PDE enzyme reaction after the completion of reaction until the measurement.
The reaction without a compound was defined as “0% inhibition”, the reaction without hPDE7B was defined as “100% inhibition”, and the inhibition rate of the compound was calculated by the following equation.
Inhibition rate of compound (%)={(Residual cAMP concentration at the addition of compound−Residual cAMP concentration in 0% inhibition)/(Residual cAMP concentration in 100% inhibition−Residual cAMP concentration in 0% inhibition)}×100

T1 sequence (Q9NP56 whole entry): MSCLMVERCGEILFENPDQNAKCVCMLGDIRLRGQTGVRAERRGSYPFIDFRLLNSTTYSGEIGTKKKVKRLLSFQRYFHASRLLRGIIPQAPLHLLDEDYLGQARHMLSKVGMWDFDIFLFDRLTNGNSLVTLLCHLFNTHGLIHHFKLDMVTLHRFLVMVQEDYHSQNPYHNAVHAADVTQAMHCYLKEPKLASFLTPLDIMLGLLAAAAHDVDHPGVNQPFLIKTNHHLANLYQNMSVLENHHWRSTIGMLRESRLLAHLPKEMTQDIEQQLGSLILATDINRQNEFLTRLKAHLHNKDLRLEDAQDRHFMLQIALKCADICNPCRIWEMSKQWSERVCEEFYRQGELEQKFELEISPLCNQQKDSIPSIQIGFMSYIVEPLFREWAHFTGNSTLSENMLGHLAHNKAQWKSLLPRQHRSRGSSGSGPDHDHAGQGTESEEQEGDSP

Row | SMILES | IC50 [nM]
1 | C[C@@H](c1ccc(F)cc1)n1nnc2c(N)ncnc21 [Example 16] | 350
2 | CC1CCC(C)(C)CN1c1nnc2c(N)nccn12 (racemic) [Example 65, 3-(2,5,5-trimethylpiperidin-1-yl) [1,2,4]triazolo[4,3-a]pyrazin-8-amine] | < 10
3 | CC1CCC(F)(F)CC1c1nnc2c(N)ncnn12 (racemic) [Example 76, 3-(cis-5,5-difluoro-2-methylcyclohexyl) [1,2,4]triazolo[3,4-f][1,2,4]triazin-8-amine] | < 10
4 | CC1CCCCC1c1nnc2c(N)ncnn12 (single isomer, unassigned) [Example 239, 3-(cis-2-methylcyclohexyl) [1,2,4]triazolo[3,4-f][1,2,4]triazin-8-amine] | 110
5 | C[C@H]1CCCCN1c1nnc2c(N)nccn12 [Example 21, 3-(2-methylpiperidin-1-yl) [1,2,4]triazolo[4,3-a]pyrazin-8-amine] | 90
6 | CCCC1CCCCN1c1nnc2c(N)nccn12 (racemic) [Example 79, 3-(2-propylpiperidin-1-yl)-[1,2,4]triazolo[4,3-a]pyrazin-8-amine] | 260
7 | Nc1nccn2c(N3CCC4(CC3)CC4)nnc12 [Example 78] | 140
8 | Nc1nccn2c(CC3CCCCC3)nnc12 [Example 165] | 360
9 | CCC1CCCCN1c1nnc2c(N)nccn12 (racemic) [Example 23, 3-(2-ethylpiperidin-1-yl) [1,2,4]triazolo[4,3-a]pyrazin-8-amine] | 40
10 | CC1CCCC(n2nnc3c(N)ncnc32)C1 (single isomer, unassigned) [Example 198, 3-(trans-3-methylcyclohexyl)-3H-[1,2,3]triazolo[4,5-d]pyrimidin-7-amine] | 70
11 | Nc1ncnc2c1nnn2[C@H]1CCC[C@H](C(F)(F)F)C1 (relative stereo) [Example 86, 3-[trans-3-(trifluoromethyl)cyclohexyl]-3H-[1,2,3]triazolo[4,5-d]pyrimidin-7-amine] | 360
12 | CC1CC(C)CN(c2nnc3c(N)nccn23)C1 (single isomer, unassigned) [Example 227, 3-[trans-3,5-dimethylpiperidin-1-yl][1,2,4]triazolo[4,3-a]pyrazin-8-amine] | 190
13 | Nc1nccn2c(C3CC(F)(F)C3)nnc12 [Example 84, 3-(3,3-difluorocyclobutyl)-[1,2,4]triazolo[4,3-a]pyrazin-8-amine] | 730
14 | CC(C)C1CCCCN1c1nnc2c(N)nccn12 (stereo not shown) [Example 37] | 490
15 | CC1CCCC(n2nnc3c(N)ncnc32)C1 (racemic) [Example 98, 3-(cis-3-methylcyclohexyl)-3H-[1,2,3]triazolo[4,5-d]pyrimidin-7-amine] | 80
16 | Nc1nccn2c(C3CCCC(C(F)(F)F)C3)nnc12 (stereo not shown) [Example 147] | 700
17 | CC1CCC(F)(F)CC1c1nnc2c(N)nccn12 (single isomer, unassigned) [Example 176, 3-(cis-5,5-difluoro-2-methylcyclohexyl) [1,2,4]triazolo[4,3-a]pyrazin-8-amine] | > 1000
18 | CC1CCN(c2nnc3c(N)nccn23)CC1C (single isomer, unassigned) [Example 228, 3-(3,4-dimethylpiperidin-1-yl) [1,2,4]triazolo[4,3-a]pyrazin-8-amine] | 540
19 | Nc1ncnn2c(C3CCCC(C(F)(F)F)C3)nnc12 (single isomer, unassigned) [Example 74, 3-[cis-3-(trifluoromethyl)cyclohexyl][1,2,4]triazolo[3,4-f][1,2,4]triazin-8-amine] | < 10
20 | CC1CCCC(c2nnc3c(N)ncnn23)C1 (single isomer, unassigned) [Example 241, 3-(cis-3-methylcyclohexyl) [1,2,4]triazolo[3,4-f][1,2,4]triazin-8-amine] | 230
21 | Nc1nccn2c(C3CC(C(F)(F)F)CC(F)(F)C3)nnc12 (stereo not shown) [Example 157] | 920

Row | SMILES | IC50 [nM]
22 | Nc1nccn2c(N3CCCC(c4ccccc4)C3)nnc12 (stereo not shown) [Example 49] | 260
23 | Nc1ncnn2c(C3CCCC(C(F)(F)F)C3)nnc12 (single isomer, unassigned) [Example 245, 3-[cis-3-(trifluoromethyl)cyclohexyl][1,2,4]triazolo[3,4-f][1,2,4]triazin-8-amine] | 850
24 | CC1CC(c2nnc3c(N)nccn23)CC(F)(F)C1 (single isomer, unassigned) [Example 217, 3-(trans-3,3-difluoro-5-methylcyclohexyl[1,2,4]triazolo[4,3-a]pyrazin-8-amine] | 100
25 | Nc1nccn2c(C3CCCc4ccccc43)nnc12 (racemic) [Example 17, 3-(1,2,3,4-tetrahydronaphthalen-1-yl)-[1,2,4]triazolo[4,3-a]pyrazin-8-amine] | 320
26 | Nc1ncnc2c1nnn2[C@H]1CC[C@@H](C(F)(F)F)CC1 [Example 102] | 250
27 | CC1CC(c2nnc3c(N)nccn23)CC(F)(F)C1 (stereo not shown) [Example 154] | 110
28 | CC1CCCC(n2nnc3c(N)ncnc32)C1 (single isomer, unassigned) [Example 197, 3-(cis-3-methylcyclohexyl)-3H-[1,2,3]triazolo[4,5-d]pyrimidin-7-amine] | 340
29 | C[C@H]1CCC[C@H](C)N1c1nnc2c(N)nccn12 [Example 64] | 107
30 | CC1CCC(C)N(c2nnc3c(N)nccn23)C1 (racemic) [Example 59, 3-(2,5-dimethylpiperidin-1-yl) [1,2,4]triazolo[4,3-a]pyrazin-8-amine] | 240
31 | CC1CCN(c2nnc3c(N)nccn23)CC1C (mixture of isomers) [Example 55, 3-(3,4-dimethylpiperidin-1-yl) [1,2,4]triazolo[4,3-a]pyrazin-8-amine] | 30
32 | CCC1CCCN(c2nnc3c(N)nccn23)C1 (stereo not shown) [Example 25] | 190
33 | Nc1ncnc2c1nnn2[C@H]1CCCOC1 [Example 91] | 360
34 | CCC1CCN(c2nnc3c(N)nccn23)CC1 [Example 50] | 520
35 | CC(C)(C)OC(=O)N1CCC[C@@H](n2nnc3c(N)ncnc32)C1 [Example 12, tert-butyl (3R)-3-(7-amino-3H-[1,2,3]triazolo[4,5-d]pyrimidin-3-yl)piperidine-1-carboxylate] | 620
36 | COC(=O)N1CCCCC1c1nnc2c(N)nccn12 (racemic) [Example 251, methyl 2-(8-amino-[1,2,4]triazolo[4,3-a]pyrazin-3-yl)-piperidine-1-carboxylate] | 620
37 | Nc1ncnc2c1nnn2-c1cccc(C(=O)NCc2ccccc2)c1 [Example 131] | 250
38 | Nc1ncnc2c1nnn2[C@@H]1CCCN(c2ccccc2)C1 [Example 136, 3-[(3R)-1-phenylpiperidin-3-yl]-3H-[1,2,3]triazolo[4,5-d]pyrimidin-7-amine] | 680
39 | C=C(C)[C@H]1CC[C@H](C)C(n2nnc3c(N)ncnc32)C1 (stereo in doubt) [Example 107, 3-[(1R,2S,5S)-2-methyl-5-(prop-1-en-2-yl)cyclohexyl]-3H-[1,2,3]triazolo[4,5-d]pyrimidin-7-amine] | > 1000
40 | Nc1nccn2c(N3CCCCC3Cc3ccccc3)nnc12 (stereo not shown) [Example 40] | 730
41 | C=C1CC(c2nnc3c(N)nccn23)C1 [Example 19, 3-(3-methylenecyclobutyl)-[1,2,4]triazolo[4,3-a]pyrazin-8-amine] | 240

same assay, conditions: compound at 1 μmol/L

Row | SMILES | inhibition at 1 µM [%]
42 | CC1CCC(F)(F)CC1c1nnc2c(N)nccn12 (single isomer, unassigned) [Example 176, 3-(cis-5,5-difluoro-2-methylcyclohexyl) [1,2,4]triazolo[4,3-a]pyrazin-8-amine] | 28
43 | C=C(C)[C@H]1CC[C@H](C)C(n2nnc3c(N)ncnc32)C1 (stereo in doubt) [Example 107, 3-[(1R,2S,5S)-2-methyl-5-(prop-1-en-2-yl)cyclohexyl]-3H-[1,2,3]triazolo[4,5-d]pyrimidin-7-amine] | 35
